Assay results reported in ChEMBL document CHEMBL6078714, “Discovery of N-Trifluoromethylated Noscapines as Novel and Potent Agents for the Treatment of Glioblastoma” (J Med Chem, 2025).
The source made the active and inactive calls. The rule behind the calls is not given here.

Legend:
[1] = Stability of compound in sodium phosphate buffer at pH 7.4 measured after 48 hrs by 1H NMR analysis; type: physicochemical; details: pH 7.4, 48 h
[2] = Stability of compound in 0.1M HCl solution at pH 1.0 assessed as parent compound remaining measured after 48 hrs by 1H NMR analysis; type: physicochemical; details: read-out: Stability
[3] = Permeability of compound incubated for 12 hrs by PAMPA; type: ADME; details: read-out: permeability
U-118-MG [4] = assay: Antiproliferative activity against human U-118- MG cells assessed as inhibition of cell proliferation at 10 uM by crystal violet staining based analysis; type: functional
U-118-MG [5] = assay: Antiproliferative activity against human U-118- MG cells assessed as inhibition of cell proliferation by crystal violet staining based analysis; type: functional; details: dose 10-40 µM
U-118-MG [6] = assay: Induction of apoptosis in human U-118-MG cells assessed as apoptotic rate at 20 uM incubated for 24 hrs by Annexin V-FITC/PI staining based flow cytometric analysis relative to control; type: functional
U-118-MG [7] = assay: Induction of apoptosis in human U-118-MG cells assessed as downregulation of Bcl-XL expression level at 1 to 40 uM incubated for 24 hrs by Western blot analysis; type: functional, cell-based; details: dose 1-40 µM
U-118-MG [8] = assay: Inhibition of cell migration in human U-118-MG cells incubated for 24 hrs by transwell assay; type: functional, cell-based; details: dose 0.1-10 µM
U-118-MG [9] = assay: Inhibition of cell migration in human U-118-MG cells assessed as decrease in number of migrating cells at 1 uM incubated for 24 hrs by transwell assay; type: functional, cell-based
U-118-MG [10] = assay: Inhibition of cell migration in human U-118-MG cells at 0.1 to 10 uM incubated for 24 hrs by microscopy based wound healing assay; type: functional; details: dose 0.1-10 µM
U-118-MG [11] = assay: Cell cycle arrest in human U-118-MG cells assessed as accumulation of cells at G1 phase at 3 uM incubated for 24 hrs by flow cytometric analysis (reference value: 56.2 %); type: functional
U-118-MG [12] = assay: Cell cycle arrest in human U-118-MG cells assessed as accumulation of cells at S phase at 3 uM incubated for 24 hrs by flow cytometric analysis (reference value: 10.7 %); type: functional
U-118-MG [13] = assay: Cell cycle arrest in human U-118-MG cells assessed as accumulation of cells at G1 phase at 10 uM incubated for 24 hrs by flow cytometric analysis (reference value: 56.2 %); type: functional
U-118-MG [14] = assay: Cell cycle arrest in human U-118-MG cells assessed as accumulation of cells at S phase at 10 uM incubated for 24 hrs by flow cytometric analysis (reference value: 10.7 %); type: functional
U-118-MG [15] = assay: Cell cycle arrest in human U-118-MG cells assessed as accumulation of cells at G2 phase at 10 uM incubated for 24 hrs by flow cytometric analysis (reference value: 30.6 %); type: functional
U-118-MG [16] = assay: Cell cycle arrest in human U-118-MG cells assessed as accumulation of cells at G1 phase at 20 uM incubated for 24 hrs by flow cytometric analysis (reference value: 56.2 %); type: functional
U-118-MG [17] = assay: Cell cycle arrest in human U-118-MG cells assessed as accumulation of cells at S phase at 20 uM incubated for 24 hrs by flow cytometric analysis (reference value: 10.7 %); type: functional
U-118-MG [18] = assay: Cell cycle arrest in human U-118-MG cells assessed as accumulation of cells at G2 phase at 20 uM incubated for 24 hrs by flow cytometric analysis (reference value: 30.6 %); type: functional
Tubulin (Homo sapiens) = Tubulin (Homo sapiens) (UniProt P68371+Q9H4B7+P0DPH7+P68366+Q13509+Q71U36+P04350+Q3ZCM7+P07437+P68363+Q9BQE3+Q6PEY2+Q13885+Q9BVA1+Q9BUF5); assay: Disruption of tubulin polymerization in human U-118-MG cells at 3 to 20 uM by DAPI staining based immunofluorescence analysis; type: cell-based; details: dose 3-20 µM
[19] = AUC (0 to 24 hrs) in Sprague-Dawley rat at 5 mg/kg, ip; type: ADME, organism-based; details: in vivo
[20] = Bioavailability in Sprague-Dawley rat at 5 mg/kg, ip; type: ADME, organism-based; details: in vivo
[21] = Drug distribution in Sprague-Dawley rat plasma at 5 mg/kg, ip measured after 0.5 hrs; type: ADME, organism-based
[22] = Ratio of drug concentration in Sprague-Dawley rat brain to plasma at 5 mg/kg, ip measured after 0.5 hrs; type: ADME, organism-based; details: read-out: BPR
[23] = Drug distribution in Sprague-Dawley rat plasma at 5 mg/kg, ip measured after 4 hrs; type: ADME, organism-based
[24] = Drug distribution in Sprague-Dawley rat brain at 5 mg/kg, ip measured after 4 hrs; type: ADME, organism-based; details: read-out: Ct
[25] = Ratio of drug concentration in Sprague-Dawley rat brain to plasma at 5 mg/kg, ip measured after 4 hrs; type: ADME, organism-based; details: read-out: BPR
U-118-MG [26] = assay: Antitumor activity against human U-118-MG cells xenografted in male BALB/c nude mouse assessed as suppression of tumor growth at 2.5 to 10 mg/kg, ip administered daily for 4 weeks; type: functional, organism-based; details: dose 2.5-10 mg/kg
U-118-MG [27] = assay: Antitumor activity against human U-118-MG cells xenografted in male BALB/c nude mouse assessed as tumor growth inhibition at 2.5 mg/kg, ip administered daily for 4 weeks relative to control; type: functional; details: 672 h, read-out: TGI
U-118-MG [28] = assay: Antitumor activity against human U-118-MG cells xenografted in male BALB/c nude mouse assessed as tumor growth inhibition at 5 mg/kg, ip administered daily for 4 weeks relative to control; type: functional; details: 672 h, read-out: TGI
U-118-MG [29] = assay: Antitumor activity against human U-118-MG cells xenografted in male BALB/c nude mouse assessed as tumor growth inhibition at 10 mg/kg, ip administered daily for 4 weeks relative to control; type: functional; details: 672 h, read-out: TGI
[30] = Toxicity in male BALB/c nude mouse xenografted with human U-118-MG cells assessed as body weight loss at 2.5 to 10 mg/kg, ip administered daily for 4 weeks; type: organism-based; details: in vivo, 672 h, dose 2.5-10 mg/kg
[31] = Toxicity in male BALB/c nude mouse xenografted with human U-118-MG cells assessed as effect on serum ALT level at 2.5 to 10 mg/kg, ip administered daily for 4 weeks; type: organism-based; details: in vivo, 672 h, dose 2.5-10 mg/kg
[32] = Toxicity in male BALB/c nude mouse xenografted with human U-118-MG cells assessed as effect on serum AST level at 2.5 to 10 mg/kg, ip administered daily for 4 weeks; type: organism-based; details: in vivo, 672 h, dose 2.5-10 mg/kg
[33] = Toxicity in male BALB/c nude mouse xenografted with human U-118-MG cells assessed as effect on serum creatinine level at 2.5 to 10 mg/kg, ip administered daily for 4 weeks; type: organism-based; details: in vivo, 672 h, dose 2.5-10 mg/kg
[34] = Toxicity in male BALB/c nude mouse xenografted with human U-118-MG cells assessed as effect on serum urea level at 2.5 to 10 mg/kg, ip administered daily for 4 weeks; type: organism-based; details: in vivo, 672 h, dose 2.5-10 mg/kg
[35] = Toxicity in male BALB/c nude mouse xenografted with human U-118-MG cells assessed as metastasis in liver at 2.5 to 10 mg/kg, ip administered daily for 4 weeks by H and E staining based analysis; type: organism-based; details: in vivo, 672 h, dose 2.5-10 mg/kg
[36] = Toxicity in male BALB/c nude mouse xenografted with human U-118-MG cells assessed as metastasis in kidney at 2.5 to 10 mg/kg, ip administered daily for 4 weeks by H and E staining based analysis; type: organism-based; details: in vivo, 672 h, dose 2.5-10 mg/kg

## COc1ccc2c(c1OC)C(=O)O[C@@H]2[C@H]1c2c(c(Br)c3c(c2OC)OCO3)CCN1C(F)(F)F
[1]
  Stability: Stable
[2]
  remaining at 48 h: 86%
[3]
  Papp at 12 h: 12.1 ×10⁻⁶ cm/s
U-118-MG [4]
  Activity: Active
U-118-MG [5]
  Activity: Dose-dependent-effect
U-118-MG [6]
  Activity: 23.7%
U-118-MG [7]
  Activity: Active
U-118-MG [8]
  inhibition: Dose-dependent-effect
U-118-MG [9]
  inhibition: Active; Superior Inhibitory Activity Compared To Noscapine And Tmz
U-118-MG [10]
  inhibition: Active
U-118-MG [11]
  Activity: 55.7%
U-118-MG [12]
  Activity: 10.4%
U-118-MG [13]
  Activity: 56.6%
U-118-MG [14]
  Activity: 9.24%
U-118-MG [15]
  Activity: 32.1%
U-118-MG [16]
  Activity: 48.3%
U-118-MG [17]
  Activity: 9.68%
U-118-MG [18]
  Activity: 40%
Tubulin (Homo sapiens)
  Activity: Active
[19]
  AUC: 661 ng·h/mL
[20]
  bioavailability: 61.3%
[21]
  concentration at 0.5 h: 99.6 ng/mL
[22]
  Kp at 0.5 h: 0.349
[23]
  concentration at 4 h: 69.4 ng/mL
[24]
  concentration at 4 h: 34.5 ng/g
[25]
  Kp at 4 h: 0.517
U-118-MG [26]
  Activity: Active
U-118-MG [27]
  inhibition in vivo at 2.5 mg/kg: 34.4%
U-118-MG [28]
  inhibition in vivo at 5 mg/kg: 37.7%
U-118-MG [29]
  inhibition in vivo at 10 mg/kg: 38.5%
[30]
  Activity: Non-toxic
[31]
  Activity: Non-toxic
[32]
  Activity: Non-toxic
[33]
  Activity: Non-toxic
[34]
  Activity: Non-toxic
[35]
  Activity: Non-toxic
[36]
  Activity: Non-toxic
